Results as given in ChEMBL document CHEMBL2163333, “Novel imidazol-1-ylmethyl substituted 1,2,5,6-tetrahydropyrrolo[3,2,1-ij]quinolin-4-ones as potent and selective CYP11B1 inhibitors for the treatment of Cushing's syndrome” (J Med Chem, 2012).

Experiments:
[1] = biological target: T1, Cytochrome P450 11B1, mitochondrial (Homo sapiens, UniProt P15538); test: Inhibition of human CYP11B1 expressed in hamster V79 MZh cells using deoxycorticosterone substrate; assay type: cell-based
T1 sequence (P15538 whole entry): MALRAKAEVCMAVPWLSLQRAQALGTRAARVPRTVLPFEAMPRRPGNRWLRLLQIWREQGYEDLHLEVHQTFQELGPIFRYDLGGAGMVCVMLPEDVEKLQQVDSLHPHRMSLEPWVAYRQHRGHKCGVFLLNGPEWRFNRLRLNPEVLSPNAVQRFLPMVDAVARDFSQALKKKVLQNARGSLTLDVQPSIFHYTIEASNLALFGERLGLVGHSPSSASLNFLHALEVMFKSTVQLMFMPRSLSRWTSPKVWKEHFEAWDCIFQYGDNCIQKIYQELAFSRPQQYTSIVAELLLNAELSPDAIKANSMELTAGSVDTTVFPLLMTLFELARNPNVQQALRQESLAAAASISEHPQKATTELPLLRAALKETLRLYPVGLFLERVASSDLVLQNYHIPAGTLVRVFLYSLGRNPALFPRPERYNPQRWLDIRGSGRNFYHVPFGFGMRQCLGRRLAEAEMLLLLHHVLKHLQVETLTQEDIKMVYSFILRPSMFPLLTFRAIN

[2] = organism: Homo sapiens; test: Selectivity ratio of IC50 for human CYP11B2 to IC50 for human CYP11B1
[3] = biological target: T2, Cytochrome P450 11B2, mitochondrial (Homo sapiens, UniProt P19099); test: Inhibition of human CYP11B2 expressed in hamster V79 MZh cells using deoxycorticosterone substrate; assay type: cell-based
T2 sequence (P19099 whole entry): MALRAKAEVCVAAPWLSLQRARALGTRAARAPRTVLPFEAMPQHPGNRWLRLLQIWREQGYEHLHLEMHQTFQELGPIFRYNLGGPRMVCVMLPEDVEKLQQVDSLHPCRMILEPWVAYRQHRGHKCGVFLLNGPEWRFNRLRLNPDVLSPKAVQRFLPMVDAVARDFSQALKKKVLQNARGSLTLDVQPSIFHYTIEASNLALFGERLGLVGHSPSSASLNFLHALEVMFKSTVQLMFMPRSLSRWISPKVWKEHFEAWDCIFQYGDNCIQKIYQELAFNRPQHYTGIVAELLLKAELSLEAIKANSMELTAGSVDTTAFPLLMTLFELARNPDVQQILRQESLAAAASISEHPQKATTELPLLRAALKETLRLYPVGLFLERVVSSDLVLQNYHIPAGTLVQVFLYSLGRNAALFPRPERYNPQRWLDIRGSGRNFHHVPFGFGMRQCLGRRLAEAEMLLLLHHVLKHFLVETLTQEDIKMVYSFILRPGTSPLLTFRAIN

[4] = biological target: T3, Steroid 17-alpha-hydroxylase/17,20 lyase (Homo sapiens, UniProt P05093); test: Inhibition of human CYP17 expressed in Escherichia coli using progesterone substrate
T3 sequence (P05093 whole entry): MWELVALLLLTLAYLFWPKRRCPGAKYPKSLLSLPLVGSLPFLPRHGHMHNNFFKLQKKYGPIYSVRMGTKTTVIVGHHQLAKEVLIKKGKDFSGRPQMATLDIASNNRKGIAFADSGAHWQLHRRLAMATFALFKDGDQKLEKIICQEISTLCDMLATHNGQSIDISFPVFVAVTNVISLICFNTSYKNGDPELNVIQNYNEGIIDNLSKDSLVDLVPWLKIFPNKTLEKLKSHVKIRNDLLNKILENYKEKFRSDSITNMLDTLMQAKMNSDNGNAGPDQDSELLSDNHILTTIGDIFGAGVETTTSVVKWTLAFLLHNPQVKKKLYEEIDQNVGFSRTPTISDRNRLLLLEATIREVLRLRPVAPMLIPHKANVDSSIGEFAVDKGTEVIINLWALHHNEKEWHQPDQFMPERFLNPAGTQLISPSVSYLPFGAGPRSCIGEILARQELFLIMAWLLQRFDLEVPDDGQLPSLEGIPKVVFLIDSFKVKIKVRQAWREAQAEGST

[5] = organism: Homo sapiens; test: Selectivity ratio of IC50 for human placental CYP19 to IC50 for human CYP11B1
[6] = organism: Homo sapiens; test: Selectivity ratio of IC50 for human CYP17 to IC50 for human CYP11B1
[7] = biological target: T4, Aromatase (Homo sapiens, UniProt P11511); test: Inhibition of human placental CYP19 using androstenedione substrate
T4 sequence (P11511 whole entry): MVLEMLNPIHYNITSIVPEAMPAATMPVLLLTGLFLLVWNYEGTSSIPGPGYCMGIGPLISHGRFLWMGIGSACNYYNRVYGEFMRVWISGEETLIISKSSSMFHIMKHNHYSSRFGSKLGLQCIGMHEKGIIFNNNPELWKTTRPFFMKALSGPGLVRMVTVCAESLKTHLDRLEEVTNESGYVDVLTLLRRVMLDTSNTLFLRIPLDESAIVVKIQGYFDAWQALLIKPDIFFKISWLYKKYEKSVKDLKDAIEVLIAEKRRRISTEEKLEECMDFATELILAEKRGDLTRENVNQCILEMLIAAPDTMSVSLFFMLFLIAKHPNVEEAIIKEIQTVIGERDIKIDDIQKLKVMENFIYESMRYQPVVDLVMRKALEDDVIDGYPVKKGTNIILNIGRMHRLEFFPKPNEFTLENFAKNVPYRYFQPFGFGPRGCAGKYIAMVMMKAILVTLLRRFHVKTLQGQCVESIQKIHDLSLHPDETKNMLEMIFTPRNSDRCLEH

[8] = biological target: T5, Cytochrome P450 11B1, mitochondrial (Rattus norvegicus, UniProt P15393); test: Inhibition of rat CYP11B1 at 2 uM
T5 sequence (P15393 whole entry): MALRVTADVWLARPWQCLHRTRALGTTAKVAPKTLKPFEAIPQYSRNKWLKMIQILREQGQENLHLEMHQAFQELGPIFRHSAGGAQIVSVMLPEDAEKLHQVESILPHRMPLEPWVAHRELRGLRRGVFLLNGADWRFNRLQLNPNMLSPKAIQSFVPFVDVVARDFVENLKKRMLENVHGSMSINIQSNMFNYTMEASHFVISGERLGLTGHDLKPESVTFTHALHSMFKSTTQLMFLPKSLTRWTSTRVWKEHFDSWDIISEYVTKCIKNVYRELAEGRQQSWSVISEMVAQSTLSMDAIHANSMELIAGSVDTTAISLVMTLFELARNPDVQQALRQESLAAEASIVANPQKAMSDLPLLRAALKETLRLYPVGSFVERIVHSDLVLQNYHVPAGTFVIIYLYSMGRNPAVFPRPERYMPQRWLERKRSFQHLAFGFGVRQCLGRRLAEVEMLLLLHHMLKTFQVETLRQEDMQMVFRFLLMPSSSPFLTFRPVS

Row | SMILES | IC50 [1] | Ratio IC50 [2] | IC50 [3] | IC50 [4] | Ratio IC50 [5] | Ratio IC50 [6] | IC50 [7] | inhibition at 2 µM [8]
1 | O=C1CCc2cc(C(c3ccco3)n3ccnc3)cc3c2N1CC3 (configuration not stated) | 20 nM | 2.4 | 47 nM | – | – | – | – | –
2 | CC(c1cc2c3c(c1)CCN3C(=O)CC2)(n1ccnc1)n1ccnc1 | 438 nM | 1.9 | 851 nM | – | – | – | – | –
3 | COc1cccc(C(c2cc3c4c(c2)CCN4C(=O)CC3)n2ccnc2)c1 (configuration not stated) | 110 nM | 0.8 | 88 nM | – | – | – | – | –
4 | COc1ccc(C(c2cc3c4c(c2)CCN4C(=O)CC3)n2ccnc2)cc1 (configuration not stated) | 40 nM | 2.6 | 104 nM | > 5000 nM | 1.1 | > 125 | 43 nM | –
5 | N#Cc1ccc(C(c2cc3c4c(c2)CCN4C(=O)CC3)n2ccnc2)cc1 (configuration not stated) | 70 nM | 4.4 | 308 nM | – | – | – | – | –
6 | N#Cc1cccc(C(c2cc3c4c(c2)CCN4C(=O)CC3)n2ccnc2)c1 (configuration not stated) | 144 nM | 2.1 | 304 nM | – | – | – | – | –
7 | O=C1CCc2cc(C(c3cccc(F)c3)n3ccnc3)cc3c2N1CC3 (configuration not stated) | 29 nM | 0.6 | 18 nM | – | – | – | – | –
8 | O=C1CCc2cc(C(c3ccccc3)n3ccnc3)cc3c2N1CC3 (configuration not stated) | 50 nM | 0.7 | 33 nM | – | – | – | – | –
9 | O=C1CCc2cc(C(c3ccc(F)cc3)n3ccnc3)cc3c2N1CC3 (configuration not stated) | 27 nM | 1.1 | 29 nM | – | – | – | – | –
10 | O=C1CCc2cc(C(c3ccccc3F)n3ccnc3)cc3c2N1CC3 (configuration not stated) | 40 nM | 0.5 | 19 nM | – | – | – | – | –

The next compounds have a lower IC50 [1] than those just listed; values first:

Row | IC50 [1] | Ratio IC50 [2] | IC50 [3] | IC50 [4] | Ratio IC50 [5] | Ratio IC50 [6] | IC50 [7] | inhibition at 2 µM [8] | SMILES
11 | 19 nM | 5.3 | 100 nM | > 5000 nM | 0.9 | > 260 | 17 nM | – | C=C(c1cc2c3c(c1)CCN3C(=O)CC2)n1ccnc1
12 | 17 nM | 0.9 | 15 nM | – | – | – | – | – | CC(c1cc2c3c(c1)CCN3C(=O)CC2)n1ccnc1 (configuration not stated)
13 | 13 nM | 1.4 | 18 nM | – | – | – | – | – | O=C1CCc2cc(C(c3cccs3)n3ccnc3)cc3c2N1CC3 (configuration not stated)
14 | 10.3 nM | – | – | – | – | – | – | – | O=C1CCc2cc(C(C3CC3)n3ccnc3)cc3c2N1CC3 (stereo in doubt; (+)-4)
15 | 6.5 nM | 0.9 | 5.8 nM | – | – | – | – | – | CCC(c1cc2c3c(c1)CCN3C(=O)CC2)n1ccnc1 (configuration not stated)
16 | 3.4 nM | 1.2 | 4.2 nM | – | – | – | – | – | O=C1CCc2cc(C(C3CCC3)n3ccnc3)cc3c2N1CC3 (configuration not stated)
17 | 2.2 nM | – | 24 nM | 2880 nM | – | – | 228 nM | 91% | O=C1CCc2cc(C(C3CC3)n3ccnc3)cc3c2N1CC3 (racemic)
18 | 1.5 nM | – | – | – | – | – | – | – | O=C1CCc2cc(C(C3CC3)n3ccnc3)cc3c2N1CC3 (single isomer, unassigned; (-))
19 | 1.4 nM | 2.7 | 3.8 nM | 1550 nM | > 357 | 1110 | > 500 nM | – | CC(C)C(c1cc2c3c(c1)CCN3C(=O)CC2)n1ccnc1 (configuration not stated)
